Data taken from PubChem BioAssay AID2060616 (Molecular Pharmacology Branch, DTP, NCI, 2025).
Several values for one entry are separate records, joined by “and”; a condition that tells them apart may be missing. Equal entries are not always repeated.

Tested on: 377384-186-R-J1-PDC complex spheroid viability
Assay: Anticancer human tumor 377384-186-R-J1-PDC patient-derived pancreatic carcinoma cell line growth inhibition [CLK]
Conditions: for viability, T/C: stronger effect = lower value
Summary of the method: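 Patient-derived tumor cells grown as complex spheroids with HUVEC endothelial cells and mesenchymal stem cells, treated with drug combinations. Concentrations descend in half-log steps from near clinical Cmax, or from 10 microM if Cmax unknown.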
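Note: spheroids exposed to agents for 7 days before reading.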
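Throughout, for viability, T/C: luminescence signal used as a stand-in for viable cells.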

In the case of `CC(CO)NC(=O)c1cc(-c2ccc(Cl)cc2)nn(-c2cnn(C)c2)c1=O` (stereo not drawn), the viability, T/C (compound 0.0316 µM) is reported as 94.9% and 112%, the viability, T/C (compound 0.1 µM) is reported as 101% and 85.5% and the viability, T/C (compound 0.316 µM) is reported as 105% and 103%. The viability, T/C (compound 1 µM) was 102% and 82.1%, the viability, T/C (compound 3.16 µM) was 77.7% and 70.1% and the viability, T/C (compound 10 µM) was 39.5% and 45.9%. The IC50 (curve of compound) was 7.29 µM and 8.48 µM.
In the case of `O=c1[nH]cc(F)c(=O)[nH]1` + CN1CCN(c2cc(C(=O)Nc3cc4cc(-c5cnn(C)c5)ccc4cn3)ccn2)CC1, the IC50 (curve of first compound, second compound 0.0316 µM) is reported as 7.6 µM, the IC50 (curve of first compound, second compound 0.1 µM) is reported as greater than 10 µM and the IC50 (curve of first compound, second compound 0.316 µM) is reported as less than 0.0316 µM. For the same compound, the IC50 (curve of first compound, second compound 1 µM) was less than 0.0316 µM, the IC50 (curve of first compound, second compound 3.16 µM) was less than 0.0316 µM and the IC50 (curve of first compound, second compound 10 µM) was less than 0.0316 µM. The viability, T/C (second compound 0.0316 µM, first compound 0.0316 µM) was 121%, the viability, T/C (second compound 0.0316 µM, first compound 0.1 µM) was 122% and the viability, T/C (second compound 0.0316 µM, first compound 0.316 µM) was 91.6%. The viability, T/C (second compound 0.0316 µM, first compound 1 µM) was 84.5%, the viability, T/C (second compound 0.0316 µM, first compound 3.16 µM) was 60.1% and the viability, T/C (second compound 0.0316 µM, first compound 10 µM) was 46.5%. The viability, T/C (second compound 0.1 µM, first compound 0.0316 µM) was 104%, the viability, T/C (second compound 0.1 µM, first compound 0.1 µM) was 107% and the viability, T/C (second compound 0.1 µM, first compound 0.316 µM) was 92.2%. It also gave a viability, T/C (second compound 0.1 µM, first compound 1 µM) of 94.4%, a viability, T/C (second compound 0.1 µM, first compound 3.16 µM) of 65.4% and a viability, T/C (second compound 0.1 µM, first compound 10 µM) of 56.1%. For the same compound, the viability, T/C (second compound 0.316 µM, first compound 0.0316 µM) was 25.5%, the viability, T/C (second compound 0.316 µM, first compound 0.1 µM) was 28.4% and the viability, T/C (second compound 0.316 µM, first compound 0.316 µM) was 22.2%. The viability, T/C (second compound 0.316 µM, first compound 1 µM) was 29.3%, the viability, T/C (second compound 0.316 µM, first compound 3.16 µM) was 28.3% and the viability, T/C (second compound 0.316 µM, first compound 10 µM) was 21.5%. For the same compound, the viability, T/C (second compound 1 µM, first compound 0.0316 µM) was 1.11%, the viability, T/C (second compound 1 µM, first compound 0.1 µM) was 0.76% and the viability, T/C (second compound 1 µM, first compound 0.316 µM) was 1.57%. It also gave a viability, T/C (second compound 1 µM, first compound 1 µM) of 1.15%, a viability, T/C (second compound 1 µM, first compound 3.16 µM) of 0.86% and a viability, T/C (second compound 1 µM, first compound 10 µM) of 1.02%. For the same compound, the viability, T/C (second compound 3.16 µM, first compound 0.0316 µM) was 0.29%, the viability, T/C (second compound 3.16 µM, first compound 0.1 µM) was 0.87% and the viability, T/C (second compound 3.16 µM, first compound 0.316 µM) was 1.83%. It also gave a viability, T/C (second compound 3.16 µM, first compound 1 µM) of 0.32%, a viability, T/C (second compound 3.16 µM, first compound 3.16 µM) of 0.25% and a viability, T/C (second compound 3.16 µM, first compound 10 µM) of 0.31%. For the same compound, the viability, T/C (second compound 10 µM, first compound 0.0316 µM) was 0.28%, the viability, T/C (second compound 10 µM, first compound 0.1 µM) was 0.51% and the viability, T/C (second compound 10 µM, first compound 0.316 µM) was 0.49%. For the same compound, the viability, T/C (second compound 10 µM, first compound 1 µM) was 0.42%, the viability, T/C (second compound 10 µM, first compound 3.16 µM) was 0.53% and the viability, T/C (second compound 10 µM, first compound 10 µM) was 1.86%.
`COC1C=CCC(C)C(C)S(=O)(=O)NC(=O)c2ccc3c(c2)N(CC2CCC21)CC1(CCCc2cc(Cl)ccc21)CO3` (stereo not drawn) was tested, and the viability, T/C (compound 0.0316 µM) was 88.4% and 110%, the viability, T/C (compound 0.1 µM) was 101% and 94.2% and the viability, T/C (compound 0.316 µM) was 82% and 79%. The viability, T/C (compound 1 µM) was 96.1% and 69.6%, the viability, T/C (compound 3.16 µM) was 65.8% and 61.7% and the viability, T/C (compound 10 µM) was 11.2% and 20.1%. The IC50 (curve of compound) was 4.41 µM and 3.37 µM.
For `C#Cc1c(F)ccc2cc(O)cc(-c3ncc4c(N5CC6CCC(C5)N6)nc(OCC56CCCN5CC(F)C6)nc4c3F)c12` (stereo not drawn), the viability, T/C (compound 0.0316 µM) was 21.7% and 21.4%, the viability, T/C (compound 0.1 µM) was 9.43% and 10.6% and the viability, T/C (compound 0.316 µM) was 5.31% and 3.97%. The viability, T/C (compound 1 µM) was 4.69% and 4.41%, the viability, T/C (compound 3.16 µM) was 2.25% and 2.02% and the viability, T/C (compound 10 µM) was 1.85% and 1.77%. The IC50 (curve of compound) was less than 0.0316 µM.
